Experimental data from patent EP4342530A1, “SORTILIN MODULATORS” (Insusense ApS, priority 2022, dated 2024).

What follows are compounds tested against T1, h-Sortilin (Homo sapiens, UniProt Q99523) (assay: Neurotensin scintillation proximity assay (displacement of [3H]-neurotensin binding)). Settings: 150 nM 6his-Sortilin, 5 nM [3H]-Neurotensin; average of at least 2 determinations; read-out: IC50 [3H]Neurotensin SPA.
T1 sequence (Q99523 78-831): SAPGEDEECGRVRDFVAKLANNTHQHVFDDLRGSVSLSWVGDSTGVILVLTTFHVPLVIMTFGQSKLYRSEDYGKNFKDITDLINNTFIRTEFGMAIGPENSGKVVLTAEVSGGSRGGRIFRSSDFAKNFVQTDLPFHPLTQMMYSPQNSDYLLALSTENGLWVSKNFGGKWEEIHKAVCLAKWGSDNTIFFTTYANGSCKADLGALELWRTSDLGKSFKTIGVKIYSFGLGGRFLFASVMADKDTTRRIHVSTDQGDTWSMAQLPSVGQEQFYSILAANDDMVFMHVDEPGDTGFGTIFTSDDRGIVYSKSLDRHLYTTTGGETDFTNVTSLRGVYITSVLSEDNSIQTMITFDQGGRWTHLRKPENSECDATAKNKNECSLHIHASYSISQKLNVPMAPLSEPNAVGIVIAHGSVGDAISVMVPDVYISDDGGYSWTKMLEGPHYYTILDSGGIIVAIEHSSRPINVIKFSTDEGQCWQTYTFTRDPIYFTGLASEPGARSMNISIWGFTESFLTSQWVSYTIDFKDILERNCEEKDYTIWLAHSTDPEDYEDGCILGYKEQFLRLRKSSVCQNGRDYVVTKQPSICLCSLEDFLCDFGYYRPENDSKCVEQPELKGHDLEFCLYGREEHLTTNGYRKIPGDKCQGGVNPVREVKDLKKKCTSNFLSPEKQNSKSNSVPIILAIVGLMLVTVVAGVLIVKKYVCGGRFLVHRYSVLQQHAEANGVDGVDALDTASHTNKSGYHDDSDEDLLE
Protocol: The exemplified compounds of the invention were tested in a Neurotensin (NTS) scintillation proximity assay (SPA). NTS, which is a 13 amino acid neuropeptide, is a sortilin ligand. The IC50 is a measure of the amount of the compound required to inhibit the binding of NTS to sortilin by 50%. The skilled person will recognise that the lower the IC50 value, the less of the compound needed to achieve the desired effect, and as a result, the chances of undesirable off-target effects are reduced.
Compound affinity was determined by measuring the displacement of [3H]-neurotensin binding to h-Sortilin in SPA format. Total volume of 40 µl in 50 mM HEPES pH 7.4 assay buffer containing 100 mM NaCl, 2.0 mM CaCl2, 0.1% BSA and 0.1% Tween-20. Compound pre-incubation for 30 minutes at room temperature with 150 nM of 6his-Sortilin before 5 nM [3H]-Neurotensin and Ni chelate imaging beads (Perkin Elmer) were added, after 6 hours the plate was read on a ViewLux with 360 s exposure time. Dose-response evaluation of compounds was performed with 8 concentrations of drugs (covering 3 decades). IC50 values were calculated by nonlinear regression using the sigmoid concentration-response (variable slope) using CDD Vault software. All values reported are average of at least 2 determinations.
In the case of `CC(C)(C)CC[C@H](NCc1ccc2c(c1)CCO2)C(=O)O` [Example 66], the IC50 is reported as 700 nM. `CC(C)(C)CC[C@H](NCc1cccc2c1COC2)C(=O)O` [Example 65] was tested, and the IC50 was 620 nM. `CC(C)(C)CC[C@H](NCc1ccc(Oc2ccccc2)cc1)C(=O)O` [Example 36] gave an IC50 of 520 nM. Work on `CC(C)(C)CC[C@H](NCc1ccc2c(c1)CCNC2)C(=O)O` [Example 15, (S)-5,5-dimethyl-2-(((1,2,3,4-tetrahydroisoquinolin-6-yl)methyl)amino)hexanoic acid] yielded an IC50 of 900 nM. `CC(C)(C)CC[C@H](NCc1cccc2c1CCC2)C(=O)O` [Example 74] showed an IC50 of 850 nM. With `C[C@@H](N[C@@H](CCC(C)(C)C)C(=O)O)c1ccc2c(c1)COCC2` [Example 64] the IC50 was 420 nM. Work on `CC(C)(C)CC[C@H](NCc1cccc(-n2cncn2)c1)C(=O)O` [Example 35, (2S)-5,5-dimethyl-2-({[3-(1H-1,2,4-triazol-1-yl)phenyl]methyl}amino)hexanoic acid] yielded an IC50 of 960 nM. `COc1cccc([C@H](CCO)N[C@@H](CCC(C)(C)C)C(=O)O)c1` [Example 41] gave an IC50 of 760 nM. In the case of `CN(C)c1cccc(CN[C@@H](CCC(C)(C)C)C(=O)O)c1` [Example 37, (2S)-2-({[3-(dimethylamino)phenyl]methyl}amino)-5,5-dimethylhexanoic acid], the IC50 is reported as 570 nM. In the case of `C[C@H](N[C@@H](CCC(C)(C)C)C(=O)O)c1ccc2c(c1)CCCC2` [Example 12], the IC50 is reported as 610 nM. Work on `CN1CCc2ccc(CN[C@@H](CCC(C)(C)C)C(=O)O)cc2C1` [Example 20, (2S)-5,5-dimethyl-2-{[(2-methyl-1,2,3,4-tetrahydroisoquinolin-7-yl)methyl]amino}hexanoic acid] yielded an IC50 of 470 nM. Compound `CC(C)(C)CC[C@H](NCc1ccc2c(c1)CCC(=O)N2)C(=O)O` [Example 31, (2S)-5,5-dimethyl-2-{[(2-oxo-1,2,3,4-tetrahydroquinolin-6-yl)methyl]amino}hexanoic acid] has an IC50 of 900 nM. In the case of `CN1C(=O)CCc2cc(CN[C@@H](CCC(C)(C)C)C(=O)O)ccc21` [Example 27, (2S)-5,5-dimethyl-2-{[(1-methyl-2-oxo-1,2,3,4-tetrahydroquinolin-6-yl)methyl]amino}hexanoic acid], the IC50 is reported as 760 nM. Compound `C[C@@H](N[C@@H](CCC(C)(C)C)C(=O)O)c1cccc2c1OCCO2` [Example 75] has an IC50 of 1220 nM. With `CC(C)(C)CC[C@H](NCc1ccc2c(c1)OCC2)C(=O)O` [Example 62] the IC50 was 430 nM. Compound `Cc1cc(CN[C@@H](CCC(C)(C)C)C(=O)O)cc2c1CCC2` [Example 26, (2S)-5,5-dimethyl-2-{[(7-methyl-2,3-dihydro-1H-inden-5-yl)methyl]amino}hexanoic acid] has an IC50 of 520 nM. Compound `CC(C)(C)CC[C@H](NCc1ccc2c(c1)N(C(=O)OC(C)(C)C)CCC2)C(=O)O` [Example 32, (2S)-2-[({1-[(tert-butoxy)carbonyl]-1,2,3,4-tetrahydroquinolin-7-yl}methyl)amino]-5,5-dimethylhexanoic acid] has an IC50 of 130 nM. With `CC(C)(C)CC[C@H](NCc1cnc2c(c1)OCCO2)C(=O)O` [Example 60] the IC50 was 820 nM. Work on `C[C@H](N[C@@H](CCC(C)(C)C)C(=O)O)c1cccc2c1OCCO2` [Example 73] yielded an IC50 of 650 nM. `CC(C)(C)CC[C@H](NCc1cnc2c(c1)CCCO2)C(=O)O` [Example 53] gave an IC50 of 580 nM. `CC(C)(C)CCC(N[C@@H](CCO)c1ccccc1)C(=O)O` (mixture of isomers) [Example 39, 2-{[(1S)-3-hydroxy-1-phenylpropyl]amino}-5,5-dimethylhexanoic acid] showed an IC50 of 410 nM. In the case of `C[C@H](N[C@@H](CCC(C)(C)C)C(=O)O)c1ccc2c(c1)OCCC2` [Example 57], the IC50 is reported as 300 nM. Work on `COc1cccc([C@@H](CCO)N[C@@H](CCC(C)(C)C)C(=O)O)c1` [Example 42] yielded an IC50 of 590 nM. Work on `C[C@H](N[C@@H](CCC(C)(C)C)C(=O)O)c1ccc2c(c1)COCC2` [Example 69] yielded an IC50 of 590 nM. Work on `CC(C)(C)CC[C@H](N[C@H](CCO)c1ccccc1)C(=O)O` [Example 40, (2S)-2-{[(1R)-3-hydroxy-1-phenylpropyl]amino}-5,5-dimethylhexanoic acid] yielded an IC50 of 6450 nM.
